Measured values from ChEMBL document CHEMBL4371021, “BH3 mimetics derived from Bim-BH3 domain core region show PTP1B inhibitory activity” (Bioorg Med Chem Lett, 2019).
pKd: −log10 of the molar value.

Experiments:
[1] = target: T1, Tyrosine-protein phosphatase non-receptor type 1 (Homo sapiens) (UniProt P18031); assay: (§1) Inhibition of recombinant human N-terminal poly histidine-tagged PTP1B (Glu2 to Asn321 residues) expressed in Escherichia coli at 40 umol/L using pNPP as substrate measured for 4 mins relative to control
T1 sequence (whole entry): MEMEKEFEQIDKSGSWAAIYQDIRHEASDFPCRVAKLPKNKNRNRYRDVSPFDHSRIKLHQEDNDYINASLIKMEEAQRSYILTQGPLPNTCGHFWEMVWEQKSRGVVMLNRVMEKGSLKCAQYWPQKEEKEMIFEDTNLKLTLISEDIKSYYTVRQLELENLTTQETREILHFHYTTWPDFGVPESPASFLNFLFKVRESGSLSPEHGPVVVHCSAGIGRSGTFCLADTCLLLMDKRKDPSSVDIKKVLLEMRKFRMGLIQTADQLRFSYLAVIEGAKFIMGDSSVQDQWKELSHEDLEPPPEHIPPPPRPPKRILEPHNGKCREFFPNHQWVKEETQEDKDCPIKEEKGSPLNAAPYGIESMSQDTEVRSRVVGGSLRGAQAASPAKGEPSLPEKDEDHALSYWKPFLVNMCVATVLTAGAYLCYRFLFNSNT

[2] = target: T2, Tyrosine-protein phosphatase non-receptor type 1 (Homo sapiens, UniProt P18031); assay: Binding affinity to recombinant human N-terminal poly histidine-tagged PTP1B (Glu2 to Asn321 residues) expressed in Escherichia coli by surface plasmon resonance analysis
T2 sequence (P18031 whole entry): T1 sequence (whole entry)

[3] = target: T1, Tyrosine-protein phosphatase non-receptor type 1 (Homo sapiens); assay: Binding affinity to recombinant human N-terminal poly histidine-tagged PTP1B (Glu2 to Asn321 residues) expressed in Escherichia coli assessed as dissociation rate constant by surface plasmon resonance analysis
[4] = target: T1, Tyrosine-protein phosphatase non-receptor type 1 (Homo sapiens); assay: Binding affinity to recombinant human N-terminal poly histidine-tagged PTP1B (Glu2 to Asn321 residues) expressed in Escherichia coli assessed as association rate constant by surface plasmon resonance analysis
[5] = target: Tyrosine-protein phosphatase non-receptor type 1 (Homo sapiens) (UniProt P18031); assay: as §1; remark: listed apart in the source

Substance: Ac-IAQELRRIGDEFNA-NH2
- inhibition [1]: 3.31%

Substance: Ac-IWIAQELRRIGDEF-NH2
- pKd [2]: 6.89
- Kdiss [3]: 1.26 ×10⁻³ /s
- inhibition [1]: 5%
- Ka [4]: 9880 M⁻¹ s⁻¹

Substance: Ac-IWIAQELRRIGDEFNA-NH2
- pKd [2]: 7.57
- Kdiss [3]: 6.38 ×10⁻⁴ /s
- inhibition [1]: 2.32%
- Ka [4]: 2.37 ×10⁴ /Ms

Substance: Ac-WIAQELRRIGDEFN-NH2
- inhibition [1]: 9.43%

Substance: SODIUM ORTHOVANAD
- inhibition [5]: 75.4%
